For data set [1], the system named is C. albicans. Briefly: MFC assay, plating after the MIC test. Further: kills > 99.9%. The conditions noted are these: Candida albicans. Format: cell-based. On the procedure: (§1) In vitro antifungal assays. The MIC assays for C. albicans (K1, SC5314, Gu5, ATCC90028, R01, R02, R03 and R04 strains) and C. neoformans (H99, MYA737 and JEC21 strains) were conducted according to a previously described protocol. The cultured fungal cells were collected at 2.5 × 10^3 CFU/mL in RPMI 1640 medium to give the working suspension. Two- […]
(§2) Then 50 µL of the cell suspension was added to each well. Wells containing cells in RPMI without any polymer or antifungal drug were used as drug-free controls, and wells containing RPMI medium only were used as cell-free controls. The plate was gently stirred for 10 seconds and then incubated at 30 °C. After C. albicans and C. neoformans cells were incubated for 24 h and 48 h, respectively, fungal cell growth was checked visually. The MIC values were identified as the lowest concentration […]
(§3) The MFC assay for Candida and Cryptococcus was conducted after the MIC test.
(§4) An aliquot of 3 µL premixed suspension from each well was plated on the yeast extract-peptone-dextrose (YPD) agar. The plates were incubated at 30 °C for 24 h and 48 h, respectively, for C. albicans cells and C. neoformans cells. Then the plate was inspected visually for colony formation. […]

In data set [2] the test system is C. neoformans. Briefly: MFC assay, plating after the MIC test. Further: kills > 99.9%. Format: cell-based. Particulars: Cryptococcus neoformans, 48 h. The procedure:
as §1, §2, §3, §4

In data set [3] the test system is C. albicans. Briefly: MIC assay (in vitro antifungal assay). The data set is classed as cell-based, Candida albicans. On the procedure: as §1
Then 50 µL of the cell suspension was added to each well. Wells containing cells in RPMI without any polymer or antifungal drug were used as drug-free controls, and wells containing RPMI medium only were used as cell-free controls. The plate was gently stirred for 10 seconds and then incubated at 30 °C. After C. albicans and C. neoformans cells were incubated for 24 h and 48 h, respectively, fungal cell growth was checked visually. […]

The subject of another data set is C. albicans (R02 strain). Briefly: microbe, parasite or virus in culture. Format: cell-based, Candida albicans. The conditions noted are these: for MIC50: Candida albicans. On the procedure:
Drug resistance studies. Drug resistance was induced by treating the C. albicans (R02 strain) repeatedly with antifungal agents. […]
albicans were tested for 30 passages of growth, which is long enough and adopted by many studies. C. albicans exposed to the 1/2 MIC concentration at the particular passage were re-grown to a logarithmic growth phrase and re-used for the subsequent passage’s MIC measurement for the same antifungal agent. Drug-resistant behavior of C. albicans was evaluated by recording the changes in the MIC compared to the original passage. All measurements were performed in duplicates. […]

For data set [4], the system named is C. neoformans. Briefly: MIC assay (in vitro antifungal assay). Particulars: Cryptococcus neoformans, 48 h. Format: cell-based. On the procedure:
as §1
plate to give 50 µL compound solution in each well. Then 50 µL of the cell suspension was added to each well. Wells containing cells in RPMI without any polymer or antifungal drug were used as drug-free controls, and wells containing RPMI medium only were used as cell-free controls. The plate was gently stirred for 10 seconds and then incubated at 30 °C. After C. albicans and C. neoformans cells were incubated for 24 h and 48 h, respectively, fungal cell growth was checked visually. […]

The next data set concerns A. Baumannii ATCC 747. Briefly: Antibacterial MIC test. Format: cell-based. The conditions noted are these: 1.0 × 10^5 CFU/mL in MH medium. An excerpt: (§5) aforementioned antifungal assay. Gram-positive bacteria ( S. aureus ATCC 6538, S.
Data set [5] relates to K. pneumoniae ATCC 700603. Briefly: Antibacterial MIC test. The data set is classed as cell-based. The conditions noted are these: 1.0 × 10^5 CFU/mL in MH medium.
Excerpt: as §5

A further data set has as its system E. coli ATCC 25922. Briefly: Antibacterial MIC test. The data set is classed as cell-based. Particulars: 1.0 × 10^5 CFU/mL in MH medium.
Excerpt: as §5

Data set [6] relates to endothelial cells (HUVEC). Briefly: Cytotoxicity, MTT assay. Format: cell-based, human. Particulars: 24 h, 37 °C, 800 to 1.6 μg/mL, 50% cell viability. The procedure:
(§6) Cytotoxicity assay. Cytotoxicity tests were performed on NIH 3T3 fibroblast cells, endothelial cells (HUVEC), macrophage (RAW264.7), liver cells (LO2), kidney cells (COS7) and enterocyte (NCM-460) using MTT assay. Cells were cultured in DMEM supplemented with 10% FBS, 5% penicillin, 2 mM L-glutamine and incubated at 37 °C in 5% CO 2. Cells were harvested and seeded onto 96-well plates at a density of 1.0 × 10^4 cells per well and incubated for 24 h. On each plate, wells containing growth medium only and cells in growth medium without any antifungal agent were used as the negative and positive control, […]
(§7) concentrations ranging from 800 to 1.6 μg/mL. Medium in each cell-containing well was replaced with 100 μL of the corresponding polymer solution, and the plates were incubated at 37 °C for 24 h. Then, the solution in each well was switched to 100 µL MTT solution (1 mg/mL) and the plate was incubated in the dark at 37 °C for 4 h. […] Then 85 µL of the supernatant from each well was transferred to the corresponding well in a new plate, followed by absorbance measurement at 570 nm on a plate reader. […] The percentage of cell viability in each test well, relative to the positive control (which defines 100%) w as calculated from [% fibroblast growth = (A polymer – Ablank)/(Acontrol – A blank) × 100]. […]

The test system of a further data set is various mammalian cells. Briefly: Cytotoxicity, MTT assay, summary over cell types. Format: cell-based. Particulars: NIH 3T3, HUVEC, RAW264.7, LO2, COS7, NCM‐460, 24 h. On the procedure:
as §6, §7
For orientation: Tetrazolium dyes change colour on reduction, which living cells bring about.

Another data set deals with human red blood cells. Briefly: Hemolysis assay. The conditions noted are these: human RBCs in TBS pH 7.2, 37 °C, 1 h, OD 405 nm, 2000 to 15.6 μg/mL, Triton X-100 as 100%. The procedure:
as §5
The positive controls used in
Then, 100 μL of the RBC working
Molecular Devices Emax precision microplate reader. Measurements were performed in duplicate and repeated on three different days. The percentage of hemolysis at each polymer […]
and plotted against polymer concentration to give the dose-response curves for hemolysis for each polymer. The HC 10 value for each polymer was defined as the polymer concentration to cause 10% lysis of RBCs. All measurements were performed with three replicates.
Cytotoxicity assay. Cytotoxicity tests were performed on NIH 3T3 fibroblast cells, endothelial cells (HUVEC), macrophage (RAW264.7), liver cells (LO2), kidney cells (COS7) and enterocyte (NCM-460) using MTT assay. Cells were cultured in DMEM supplemented with 10% FBS, 5% penicillin, 2 mM L-glutamine and incubated at 37 °C in 5% CO 2. […]
concentrations ranging from 800 to 1.6 μg/mL. […] Then 85 µL of the supernatant from each well was transferred to the corresponding well in a new plate, followed by absorbance measurement at 570 nm on a plate reader. […] The percentage of cell viability in each test well, relative to the positive control (which defines 100%) w as calculated from [% fibroblast growth = (A polymer – Ablank)/(Acontrol

For another data set, the system named is S. aureus ATCC 6538. Briefly: Antibacterial MIC test. Particulars: 1.0 × 10^5 CFU/mL in MH medium. The data set is classed as cell-based.
Excerpt: as §5

A further data set relates to B. subtilis BR151. Briefly: Antibacterial MIC test. The data set is classed as cell-based. Particulars: 1.0 × 10^5 CFU/mL in MH medium.
Excerpt: as §5

Data set [7] concerns S. epidermidis ATCC 49134. Briefly: Antibacterial MIC test. Format: cell-based. The conditions noted are these: 1.0 × 10^5 CFU/mL in MH medium.
Excerpt: as §5

In data set [8] the test system is Gram‐positive and Gram‐negative bacteria. Briefly: Antibacterial MIC test, summary over six bacteria. Particulars: S. aureus, S. epidermidis, B. subtilis, E. coli, A. baumannii, K. pneumoniae. The data set is classed as cell-based.
Excerpt: as §5

In brackets after ≈: the same amount, converted by molar mass. Where two headings read alike, the source gives them in different places.

Usually MIC stands for the lowest concentration found to suppress growth. Turning to `OC(Cn1cncn1)(Cn1cncn1)c1ccc(F)cc1F` [fluconazole], the MFC in the data set on C. albicans [1] (24 h, read-out: MFC C. albicans Gu5) was greater than 200 µg/mL; in the data set with C. albicans [1] (24 h, read-out: MFC C. albicans K1), greater than 200 µg/mL; in the data set on C. albicans [1] (24 h, read-out: MFC C. albicans R01), greater than 200 µg/mL; in the data set with C. albicans [1] (24 h, read-out: MFC C. albicans R02) it was greater than 200 µg/mL; in the data set with C. albicans [1] (24 h, read-out: MFC C. albicans R03), greater than 200 µg/mL; in the data set on C. albicans [1] (24 h, read-out: MFC C. albicans R04), greater than 200 µg/mL. Besides, the MFC in the data set on C. albicans [1] (ATCC90028, 24 h, read-out: MFC C. albicans ATCC90028) was greater than 200 µg/mL; with C. albicans [1] (SC5314, 24 h, read-out: MFC C. albicans SC5314), greater than 200 µg/mL; with C. neoformans [2] (read-out: MFC C. neoformans H99), 6.3 µg/mL (≈ 20.6 µM); in the data set with C. neoformans [2] (read-out: MFC C. neoformans JEC21), 12.5 µg/mL (≈ 40.8 µM); in the data set with C. neoformans [2] (read-out: MFC C. neoformans MYA737) it was 6.3 µg/mL (≈ 20.6 µM). Further, the MIC50 with C. albicans [3] (Candida albicans, 24 h, read-out: MIC50 (used for fluconazole) C. albicans Gu5) was 200 µg/mL (≈ 653 µM); in the data set on C. albicans [3] (Candida albicans, 24 h, read-out: MIC50 (used for fluconazole) C. albicans K1), 0.4 µg/mL (≈ 1.31 µM); in the data set with C. albicans [3] (Candida albicans, 24 h, read-out: MIC50 (used for fluconazole) C. albicans R01) it was 0.4 µg/mL (≈ 1.31 µM); with C. albicans [3] (Candida albicans, 24 h, read-out: MIC50 (used for fluconazole) C. albicans R02), 0.4 µg/mL (≈ 1.31 µM); in the data set with C. albicans [3] (Candida albicans, 24 h, read-out: MIC50 (used for fluconazole) C. albicans R03) it was 0.2 µg/mL (≈ 0.653 µM); in the data set on C. albicans [3] (Candida albicans, 24 h, read-out: MIC50 (used for fluconazole) C. albicans R04), 0.2 µg/mL (≈ 0.653 µM). Besides, the MIC50 was 0.2 µg/mL (≈ 0.653 µM) in the data set with C. albicans [3] (Candida albicans, ATCC90028, 24 h, read-out: MIC50 (used for fluconazole) C. albicans ATCC90028); 50 µg/mL (≈ 163 µM) in the data set on C. albicans [3] (Candida albicans, SC5314, 24 h, read-out: MIC50 (used for fluconazole) C. albicans SC5314); 1.6 µg/mL (≈ 5.22 µM) in the data set on C. albicans (R02 strain) (read-out: MIC50 after 30 passages); 0.2 µg/mL (≈ 0.653 µM) in the data set on C. albicans (R02 strain) (read-out: MIC50 before passaging); 6.3 µg/mL (≈ 20.6 µM) in the data set with C. neoformans [4] (read-out: MIC50 (row marked fluconazole*) C. neoformans H99); 12.5 µg/mL (≈ 40.8 µM) in the data set with C. neoformans [4] (read-out: MIC50 (row marked fluconazole*) C. neoformans JEC21). In the data set on C. neoformans [4] (read-out: MIC50 (row marked fluconazole*) C. neoformans MYA737), the MIC50 was 6.3 µg/mL (≈ 20.6 µM). For the same compound, the minimum inhibitory concentration (MIC) with C. albicans [3] (Candida albicans, read-out: MIC of fluconazole (complete inhibition), all strains of C. albicans) was greater than 200 µg/mL. For the same compound, the “Increase of MIC50 after 30 passages” value with C. albicans (R02 strain) (C. albicans R02, continuous treatment with 0.5 × MIC50) is listed as “eightfolds”.
Consider polymyxin B, for which the “MIC A. baumannii” value with A. Baumannii ATCC 747 is 0.2 µg/mL. For the same compound, the “MIC K. pneumoniae” value in [5] stood at 0.8 µg/mL. In the data set on E. coli ATCC 25922, the “MIC E. coli” value is 0.2 µg/mL.
Take poly(DL‐diaminopropionic acid) [PDAP10]: the “IC50 HUVEC” value in [6] was 675 µg/mL.
For poly(DL‐diaminopropionic acid) [PDAP5], in the data set on various mammalian cells, the “IC50 over six mammalian cell types (range)” value was in the range of 340 to 800 µg/mL. In the data set on human red blood cells, the “HC10 (concentration to cause 10% hemolysis)” value turned out to be 1000 µg/mL.
Regarding ε‐poly‐lysine [ε-PL], the “MIC A. baumannii” value against A. Baumannii ATCC 747 worked out at 6.3 µg/mL. In the data set with S. aureus ATCC 6538, the “MIC S. aureus” value worked out at 3.1 µg/mL. Also, the “MIC K. pneumoniae” value in data set [5] was determined as 6.3 µg/mL. The “MIC B. subtilis” value with B. subtilis BR151 was found to be 1.6 µg/mL. The “MIC S. epidermidis” value in [7] was 3.1 µg/mL. Also, in the data set on E. coli ATCC 25922, the “MIC E. coli” value was determined as 6.3 µg/mL. In addition, in the data set with C. albicans [3] (K+ up to 20 × 10^−3 M, C. albicans K1), the “Effect of increasing K+ on antifungal activity” value is recorded as “didn't affect”. In the data set with C. albicans [3] (Na+ 103 mM, K+ 5.4 mM), the “MIC C. albicans K1, standard MIC test in RPMI 1640” value worked out at 400 µg/mL. Also, the “MIC C. albicans K1, physiological salt concentration” value in the data set on C. albicans [3] (Na+ 150 mM, K+ 5.4 mM) amounted to 1600 μg/mL. For the same compound, in the data set on C. albicans [3] (Na+ 200 mM, K+ 5.4 mM), the “MIC C. albicans K1, Na+ ↑” value was greater than 1600 µg/mL. Besides, the “MIC against C. albicans (Figure 1a)” value in the data set with C. albicans [3] (approximate value printed in the design figure) is ~ 400 μg/mL. Moreover, the “MIC against three strains of C. albicans (range)” value against C. albicans [3] (range over three strains, Figure 2d) lay within 200 to 400 µg/mL. Moreover, the “MIC against the six bacteria (summary)” value in [8] lay in the range of 1.6 to 6.3 µg/mL.

Values taken from PMC9108603, “Microbial Metabolite Inspired β‐Peptide Polymers Displaying Potent and Selective Antifungal Activity” (Advanced Science, 2022).
